# Values quoted from earlier work, collected in publication PMC7913621 (Molecules, 2021).
# Columns and labels:
# [1] = system: PDE; conditions: read-out: PDE inhibition activity IC50; cited from earlier work
# [2] = system: colon cancer cell line HT29; conditions: read-out: cytotoxic effect IC50; cited from earlier work
# [3] = system: AChE; conditions: read-out: AChE inhibition IC50; cited from earlier work
# [4] = system: PDE5A1; conditions: read-out: PDE5A1 inhibition IC50; cited from earlier work
SMILES,IC50 [1] [nM],IC50 [2] [nM],IC50 [3] [nM],IC50 [4] [nM]
CCN1CC(=O)N2C(Cc3c([nH]c4ccccc34)C2c2ccccc2Br)C1=O (stereo not shown) [Compound 3],60,25500,,
O=C1C2Cc3c([nH]c4ccccc34)C(c3ccc4c(c3)OCO4)N2C(=O)CN1CCC1CCN(Cc2ccccc2)CC1 (stereo not shown) [Compound 5],,,32,1530
